For this assay, the system named is L1210 leukemia ip in BDF1 mice, survival T/C. Put plainly: NCI In Vivo Anticancer Drug Screen. Data for tumor model L1210 Leukemia (intraperitoneal) in B6D2F1 (BDF1) mice. The following applies: endpoint: mean survival time, higher = longer survival. An outline of the steps:
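Transplantable tumor model; survival measured in treated vs vehicle control mice. Value = treated/control.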

Setting [1] is: dose: 100.0 mg/kg/injection, schedule: Q01DX001 (ip), vehicle: saline with Tween-80.
Where [2] appears, read: dose: 100.0 mg/kg/injection, schedule: Q01DX001 (ip), vehicle: saline.
Where [3] appears, read: dose: 200.0 mg/kg/injection, schedule: Q01DX001 (ip), vehicle: saline.
The mark [4] stands for this setting: dose: 400.0 mg/kg/injection, schedule: Q01DX001 (ip), vehicle: saline.
Where [5] appears, read: dose: 100.0 mg/kg/injection, schedule: Q04DX003 (ip), vehicle: saline with Tween-80.
Where [6] appears, read: dose: 200.0 mg/kg/injection, schedule: Q04DX003 (ip), vehicle: saline with Tween-80.
Where [7] appears, read: dose: 400.0 mg/kg/injection, schedule: Q04DX003 (ip), vehicle: saline with Tween-80.
The mark [8] stands for this setting: dose: 100.0 mg/kg/injection, schedule: Q01DX009 (ip), vehicle: saline with Tween-80.
Where [9] appears, read: dose: 100.0 mg/kg/injection, schedule: Q01DX001 (ip), vehicle: carboxymethylcellulose (CMC).
The mark [10] stands for this setting: dose: 200.0 mg/kg/injection, schedule: Q01DX001 (ip), vehicle: carboxymethylcellulose (CMC).
The mark [11] stands for this setting: dose: 400.0 mg/kg/injection, schedule: Q01DX001 (ip), vehicle: carboxymethylcellulose (CMC).

Several values for one entry are separate records, joined by “and”; a condition that tells them apart may be missing. Equal entries are not always repeated. Inconclusive results and toxic doses are left out.

With `O=C1c2c(c(-c3ccccc3)c3ccccc3c2-c2ccccc2)C(c2ccccc2)c2c1c(-c1ccccc1)c1ccccc1c2-c1ccccc1`, the T/C runs as follows: under setting [1], 111 % of control; (dose: 200.0 mg/kg/injection, schedule: Q01DX001 (ip), vehicle: saline with Tween-80) 97 % of control; (dose: 400.0 mg/kg/injection, schedule: Q01DX001 (ip), vehicle: saline with Tween-80) 90 % of control.

In the case of `O=C1OC(c2ccccc2)=N/C1=C\c1ccc([N+](=O)[O-])cc1`, the T/C runs as follows: (dose: 100.0 mg/kg/injection, schedule: Q04DX002 (ip), vehicle: Klucel (hydroxypropylcellulose) (HPC)) 92 % of control; (dose: 200.0 mg/kg/injection, schedule: Q04DX002 (ip), vehicle: Klucel (hydroxypropylcellulose) (HPC)) 89 % of control; (dose: 400.0 mg/kg/injection, schedule: Q04DX002 (ip), vehicle: Klucel (hydroxypropylcellulose) (HPC)) 86 % of control.

Take `Nc1nc2ncc(CNc3ccc(CC(=O)NC(CCC(=O)O)C(=O)O)cc3)nc2c(=O)[nH]1` (stereo not drawn): the T/C is, setting by setting: (dose: 75.0 mg/kg/injection, schedule: Q01DX001 (ip), vehicle: saline) 103 % of control; (dose: 150.0 mg/kg/injection, schedule: Q01DX001 (ip), vehicle: saline) 103 % of control.

As to `C(=C/c1ccnc(/C=C/c2ccccc2)c1)/c1ccccc1`, the T/C (dose: 25.0 mg/kg/injection, schedule: Q01DX009 (ip), vehicle: acetone) was 97 % of control and 99 % of control; the T/C (dose: 50.0 mg/kg/injection, schedule: Q01DX009 (ip), vehicle: acetone) was 87 % of control; the T/C under setting [2] is 91 % of control; the T/C (dose: 100.0 mg/kg/injection, schedule: Q01DX009 (ip), vehicle: acetone) was 89 % of control and 92 % of control; the T/C (dose: 100.0 mg/kg/injection, schedule: Q04DX003 (ip), vehicle: acetone) was 94 % of control; the T/C under setting [3] was 94 % of control. The T/C is, setting by setting: (dose: 200.0 mg/kg/injection, schedule: Q04DX003 (ip), vehicle: acetone) 86 % of control; under setting [4], 94 % of control.

In the case of `O=C1NC(=O)C(C2CCCCC2)(C2CCCCC2)N1`, the T/C is 103 % of control (dose: 100.0 mg/kg/injection, schedule: Q01DX009 (ip), vehicle: saline); 107 % of control under setting [5]; 94 % of control (dose: 200.0 mg/kg/injection, schedule: Q01DX009 (ip), vehicle: saline); 107 % of control under setting [6]; 88 % of control (dose: 400.0 mg/kg/injection, schedule: Q01DX009 (ip), vehicle: saline); 93 % of control under setting [7].

For `CN1C(=O)CC(C(=O)c2ccc(N3C(=O)C=CC3=O)cc2)(c2ccccc2)C1=O` (stereo not drawn), the T/C runs as follows: (dose: 25.0 mg/kg/injection, schedule: Q04DX002 (ip), vehicle: saline with Tween-80) 102 % of control; (dose: 50.0 mg/kg/injection, schedule: Q04DX002 (ip), vehicle: saline with Tween-80) 98 % of control.

For the compound `Cc1ccc(N=NN(C)C)cc1`, the T/C (dose: 12.5 mg/kg/injection, schedule: Q01DX009 (ip), vehicle: saline with Tween-80) was 97 % of control; the T/C (dose: 25.0 mg/kg/injection, schedule: Q01DX009 (ip), vehicle: saline with Tween-80) was 103 % of control; the T/C (dose: 25.0 mg/kg/injection, schedule: Q04DX003 (ip), vehicle: saline with Tween-80) was 105 % of control; the T/C (dose: 26.6 mg/kg/injection, schedule: Q01DX Z (ip), vehicle: methylcellulose (MC)) is 104 % of control; the T/C (dose: 31.25 mg/kg/injection, schedule: Q01DX001 (ip), vehicle: saline with Tween-80) is 108 % of control; the T/C (dose: 40.0 mg/kg/injection, schedule: Q01DX Z (ip), vehicle: methylcellulose (MC)) was 118 % of control. In addition, the T/C (dose: 50.0 mg/kg/injection, schedule: Q01DX009 (ip), vehicle: saline with Tween-80) was 103 % of control; the T/C (dose: 50.0 mg/kg/injection, schedule: Q04DX003 (ip), vehicle: saline with Tween-80) was 103 % of control; the T/C (dose: 62.5 mg/kg/injection, schedule: Q01DX001 (ip), vehicle: saline with Tween-80) is 110 % of control; the T/C (dose: 90.0 mg/kg/injection, schedule: Q01DX Z (ip), vehicle: methylcellulose (MC)) is 165 % of control; the T/C under setting [8] is 104 % of control; the T/C under setting [5] was 110 % of control. Besides, the T/C reads like this: (dose: 180.0 mg/kg/injection, schedule: Q01DX Z (ip), vehicle: carboxymethylcellulose (CMC)) 102 % of control; under setting [6], 109 % of control.

In the case of `COC(=O)C(CC/C(=N\Nc1ccc([N+](=O)[O-])cc1[N+](=O)[O-])c1ccccc1)C(=O)OC`, the T/C reads like this: (dose: 25.0 mg/kg/injection, schedule: Q01DX001 (ip), vehicle: saline with Tween-80) 95 % of control; (dose: 50.0 mg/kg/injection, schedule: Q01DX001 (ip), vehicle: saline with Tween-80) 88 % of control; under setting [1], 91 % of control.

Consider `COC(=O)c1ccccc1NCCCC(=O)O`, for which the T/C by setting is: under setting [8], 97 % of control; under setting [5], 103 % of control; (dose: 200.0 mg/kg/injection, schedule: Q01DX009 (ip), vehicle: saline with Tween-80) 97 % of control; under setting [6], 97 % of control; (dose: 400.0 mg/kg/injection, schedule: Q01DX009 (ip), vehicle: saline with Tween-80) 102 % of control; under setting [7], 98 % of control.

For the compound `COC(=O)c1n[nH]c(C)c1N=NN1CCC(C(N)=O)CC1`, the T/C reads like this: (dose: 9.38 mg/kg/injection, schedule: Q01DX001 (ip), vehicle: other) 118 % of control; (dose: 18.75 mg/kg/injection, schedule: Q01DX001 (ip), vehicle: other) 109 % of control; (dose: 37.5 mg/kg/injection, schedule: Q01DX001 (ip), vehicle: other) 101 % of control.

Regarding `Nc1ncccc1C(=O)O`, the T/C is 96 % of control and 100 % of control (dose: 62.5 mg/kg/injection, schedule: Q01DX010 (ip), vehicle: saline); 101 % of control under setting [9]; 93 % of control and 109 % of control (dose: 125.0 mg/kg/injection, schedule: Q01DX010 (ip), vehicle: saline); 98 % of control under setting [10]; 102 % of control and 90 % of control (dose: 250.0 mg/kg/injection, schedule: Q01DX010 (ip), vehicle: saline); 95 % of control under setting [11]. The T/C (dose: 500.0 mg/kg/injection, schedule: Q01DX010 (ip), vehicle: saline) was 100 % of control and 90 % of control.

In the case of `C=CC[Si](Cl)(Cl)Cl`, the T/C is 93 % of control (dose: 50.0 mg/kg/injection, schedule: Q01DX001 (ip), vehicle: saline) and 98 % of control under setting [2].

In the case of `O=C1CCCC2C1CCCC21OCCO1` (stereo not drawn), the T/C reads like this: under setting [2], 96 % of control; under setting [3], 96 % of control; under setting [4], 96 % of control.

Consider `S=C(NCc1ccccc1)Nc1ccccc1`, for which the T/C is 96 % of control under setting [5] and 94 % of control under setting [6].

In the case of `COc1ccc(N2C(=O)C3C(C2=O)C2c4ccccc4C3C3CCCCN32)cc1` (stereo not drawn), the T/C (dose: 75.0 mg/kg/injection, schedule: Q01DX001 (ip), vehicle: other) was 103 % of control.

On to `Brc1ccc(Br)c(-c2nnc(-c3cccc4ccccc34)o2)c1`, for which the T/C under setting [2] was 86 % of control.

Consider `Cc1cc(N(CCCl)CCCl)ccc1C=Nc1ccc(S(N)(=O)=O)cc1`, for which the T/C is, setting by setting: (dose: 50.0 mg/kg/injection, schedule: Q01DX001 (ip), vehicle: carboxymethylcellulose (CMC)) 95 % of control; under setting [9], 104 % of control; under setting [10], 101 % of control; under setting [11], 104 % of control.

For `CCCCCC(C)O[Si](C)Cc1ccccc1` (stereo not drawn), the T/C by setting is: under setting [5], 95 % of control; under setting [6], 97 % of control; under setting [7], 90 % of control.

Take `CCCCCCCCCCCCNC(=O)C[n+]1cccc(C(=O)N(CC)CC)c1`: the T/C reads like this: (dose: 12.5 mg/kg/injection, schedule: Q04DX003 (ip), vehicle: saline) 92 % of control; (dose: 25.0 mg/kg/injection, schedule: Q04DX003 (ip), vehicle: saline) 97 % of control; (dose: 50.0 mg/kg/injection, schedule: Q04DX003 (ip), vehicle: saline) 97 % of control.

Consider `N#CCCNC(=S)Nc1ccccc1`, for which the T/C was 102 % of control (dose: 25.0 mg/kg/injection, schedule: Q01DX Z (ip), vehicle: methylcellulose (MC)) and 101 % of control (dose: 50.0 mg/kg/injection, schedule: Q01DX Z (ip), vehicle: methylcellulose (MC)).

The values are drawn from PubChem BioAssay AID248 (DTP/NCI, 2004).
